Legend:
Type in all cases: cell-based, human
[1] = test system: AhR pathway in MCF-7 cells; assay: Real Time PCR of CYP1A1 and AHRR transcripts (AhR pathway); conditions: MCF-7, 10 μM
Procedure: Total RNA from treated cells was isolated using miRNeasy® mini kit (#217004, Qiagen, Venlo, Netherlands), according to producer’s protocol guidelines. One μg of total RNA was reverse-transcribed using QuantiTect® Reverse Transcription Kit (#205311, Qiagen), according to producer’s protocol guidelines (Qiagen).
Relative quantification of gene expression was performed with the 7500 Real Time PCR System (Thermo Fisher Scientific (Applied Biosystems), Waltham, MA, USA) using SensiFAST™ SYBR® Lo-ROX Kit (#BIO 94020, Bioline, London, UK). The relative amount of mRNA expression was determined by means of ΔΔCt method, using GAPDH as internal control. Primers were designed using www.ncbi.nlm.nih.gov/tools/primer-blast/ and purchased from Sigma-Aldrich. The following oligos were used: • -3′ CYP1A1 mRNA: • - Fw: 5′- […]-3′ • CYP1A1 mRNA: • - Rv: 5′- […]-3′ • AHRR mRNA: • - Fw: 5′- […]-3′ • AHRR mRNA: • - Rv: 5′- […]-3′-3′ • GAPDH mRNA: • - Fw: 5′- […]-3′ • GAPDH mRNA: • - Rv: 5′- CGTTGTCATACCAGGAAAT-3′

MCF-7 cells [2] = assay: Clonogenic assay after X-ray irradiation; conditions: for proliferative capacity (clonogenic survival): MCF-7, 10 μM, compared to DMSO control
Procedure: One hour after treatment with inhibitors, cells were exposed to X-ray using a MLG 300/6-D apparatus (Gilardoni, Lecco, Italy) set to […] and 6 mA, in order to produce an equivalent absorbed dose of 1cGy/s. Afterwards, cells were harvested, counted and then diluted in inhibitor containing growth medium. Appropriate cell numbers were seeded in quadruplicate according to the doubling time of the cell line and to radiation dose. 24 h after this seeding, the medium with inhibitor was replaced with fresh DMEM and cells were then incubated for 14 days (enough time to allow at least six cell divisions). After this period of growth, cells were washed twice with PBS and then fixed and stained with a suitable volume of a solution made of 0.3% Methylene Blue and 80% Ethanol for 30 min at room temperature. After washing cells twice with ddH2O, plates were pictured with ChemiDoc XRS+ Imaging System (Bio-Rad) in colorimetric mode. Colonies were detected using Fiji software, with the “Find maxima” function setting a background noise threshold of 3000. Radiation-dose response curveS to X-ray for DMSO and inhibitor samples were calculated using surviving fraction. Plating efficiency and surviving fraction were calculated as follows:Plating efficiency = number of colonies counted/number of cells plated Surviving fraction = Plating efficiency/plating efficiency of shame sample

MCF-7 cells [3] = assay: Flow-cytometry analysis of cell cycle distribution; conditions: for cells in G2/M / subG1 cells (possible apoptotic fraction): MCF-7, 30 μM
Procedure: Flow-cytometry analysis of DNA content was carried out using an EPICS xl flow-cytometer (Beckman-Coulter, Brea, CA, USA). DMSO and inhibitor treated MCF-7 cells were trypsinized, pelleted, washed with PBS and finally resuspended in PBS containing 0.1% Triton-X-100 (#A1388.1000, AppliChem, Darmstadt, Germany) and 40 μg/mL propidium iodide (#P-4170, Sigma). After 20 min incubation at 37 °C the samples were analyzed. 10,000 events were acquired for each sample. Acquired data were analyzed using the WinMDI software by Joe Trotter, available at http://facs.scripps.edu.

[4] = test system: pan-methyl-H3K9 levels in MCF-7 cells; assay: Western blotting of pan-methyl-H3K9 levels; conditions: MCF-7, 24 h, three concentrations (1, 10, 30 μM)
Procedure: Histone isolation was performed according to acid extraction of histones protocol of Shechter and colleagues. Histone concentration was determined by running 5 μL of samples and known concentrations of commercially available purified calf thymus histones (from Sigma Aldrich Cat. #000000010223565001) on a SDS-PAGE gel. The gel is stained with Coomassie blue G 250 (BIO-RAD Cat. #161-0786) for 1 hour at room temperature and then destained in distilled water. The gel image is acquired with ChemiDoc XRS+ Imaging System (Bio-Rad, Hercules, CA, USA) and the volumes of bands of the samples are compared to standard concentrations of calf thymus histone.
Proteins were resolved on a 12% (histones) or 5% (JARID1B) denaturing polyacrylamide gel, using either 4 μg of histone preparation or 40 μg of cell lysate. […] Blots were scanned and analyzed with a ChemiDoc XRS+ Imaging System (Bio-Rad). The volumes of each band of protein was acquired using Bio-Rad’s ImageLab software by means of volume tools using global quantification. The signal for each protein was normalized to the housekeeping protein and ratios with average control values were determined. For histones as loading control was used either total histone H3 detected by a specific antibody or histone H1 levels by staining the upper part of the gel properly cut before protein transfer on nitrocellulose membrane.

## CCOC(=O)c1cccn1C(=O)c1cccc(NS(=O)(=O)c2ccc(OC)cc2)c1 [RS3195]
[1]
  CYP1A1 and AHRR transcript levels (AhR pathway genes): induces the genes involved in AhR pathway
MCF-7 cells [2]; irradiated
  proliferative capacity (clonogenic survival): no significant effect
MCF-7 cells [2]; MCF-7, sham-irradiated (not shown)
  number of clones in sham-irradiated cells: lower number of clones
MCF-7 cells [3]; MCF-7, 1 μM
  cell cycle dynamics: No cell cycle perturbation
MCF-7 cells [3]; MCF-7, 10 μM
  cell cycle dynamics: slight but significant increase of G0/G1 population
MCF-7 cells [3]
  cells in G2/M: clear increase of cells in G2/M
  subG1 cells (possible apoptotic fraction): consistent increase of subG1 cells

## CCOC(=O)c1ccccc1C(=O)c1cccc(NS(=O)(=O)c2ccc(OC)cc2)c1 [RS5033]
[1]
  CYP1A1 and AHRR transcript levels (AhR pathway genes): only a slight increase
[4]
  H3K9me3 (pan-methyl-H3K9) levels: not affected
MCF-7 cells [2]; 3 Gy irradiation dose
  proliferative capacity (clonogenic survival): slight but significant decrease
MCF-7 cells [3]; MCF-7, 10 μM and 30 μM
  perturbation of cell cycle dynamics: no significant perturbation
MCF-7 cells [3]
  cells in G2/M: not observed
  subG1 cells (possible apoptotic fraction): not observed
